# Where “and” joins values, the source holds several entries; their conditions need not be identical. Equal entries are not always repeated. Where two headings read alike, the source gives them in different places.
# Assays:
# Format in all cases: cell-based
# [1] = target: T1, α1β1R41N GABAA receptors (Rattus norvegicus, UniProt P15431+P62813, R66N); experiment: Two electrode voltage clamp in Xenopus laevis oocytes, mutant α1β1R41N; details: for current as % of control at 0.1 µM: 100nM; for current as % of control at 0.1 µM / current as % of control at 0.3 µM / current as % of control at 1 µM / current as % of control at 3 µM / current as % of control at 10 µM / current as % of control at 30 µM: read-out: % of control current at EC3-5; for current as % of control at 0.3 µM: 300nM
# T1 construct: expressed in transfected cells; host or cells: Xenopus laevis oocytes, mRNA injected
# T1 sequence (P62813 28-455): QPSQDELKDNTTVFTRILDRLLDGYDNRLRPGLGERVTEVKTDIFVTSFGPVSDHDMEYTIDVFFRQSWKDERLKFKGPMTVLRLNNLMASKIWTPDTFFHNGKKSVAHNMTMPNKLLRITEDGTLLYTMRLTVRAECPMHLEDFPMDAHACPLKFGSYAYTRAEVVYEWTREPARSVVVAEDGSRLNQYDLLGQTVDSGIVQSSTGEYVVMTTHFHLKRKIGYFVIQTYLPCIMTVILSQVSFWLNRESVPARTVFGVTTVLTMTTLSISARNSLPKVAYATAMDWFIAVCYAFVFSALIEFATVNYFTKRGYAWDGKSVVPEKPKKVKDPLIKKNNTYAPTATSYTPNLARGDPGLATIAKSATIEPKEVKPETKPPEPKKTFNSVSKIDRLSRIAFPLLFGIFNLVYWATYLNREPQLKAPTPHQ
# T1 sequence (P15431 26-474 R66N): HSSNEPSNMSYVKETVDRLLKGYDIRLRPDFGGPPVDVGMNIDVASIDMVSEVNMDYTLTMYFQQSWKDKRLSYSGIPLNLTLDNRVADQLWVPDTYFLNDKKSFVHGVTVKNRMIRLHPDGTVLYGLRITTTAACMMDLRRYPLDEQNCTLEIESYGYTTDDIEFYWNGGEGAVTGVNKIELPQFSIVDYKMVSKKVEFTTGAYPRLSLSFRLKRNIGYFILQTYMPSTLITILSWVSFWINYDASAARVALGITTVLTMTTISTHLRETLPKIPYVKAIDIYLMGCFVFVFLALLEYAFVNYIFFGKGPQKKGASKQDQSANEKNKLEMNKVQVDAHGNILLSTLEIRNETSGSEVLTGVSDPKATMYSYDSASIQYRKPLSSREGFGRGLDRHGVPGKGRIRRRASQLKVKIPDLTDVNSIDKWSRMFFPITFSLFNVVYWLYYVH
# Source text: (§1) cDNA’s of rat GABAA receptor subunits α1, α4, β1, β2, β3 and γ2S were cloned as described. cDNAs of the rat subunits α2, α3 and α5 were gifts from P. Malherbe, that of α6 and γ1 were gifts of P. Seeburg and that of δ was a gift of C. Czajkowski. The mutants were constructed using the Q5 Site-Directed Mutagenesis Kit (New England Biolabs) following manufacturer’s instruction. We used the wild-type rat β3-pCI vector as template and the primers […] and […] resulting in a substitution of amino acid N41 (AAC) to R (AGG). We used the wild-type rat β1-pCI vector as template and the primers […] and […] resulting in a substitution of amino acid R41 (CGG) to N (AAC). The mutated subunits were confirmed by sequencing.
# (§2) In vitro transcription of mRNA was based on the cDNA expression vectors encoding for rat GABAA receptor subunits α1–6, β1-3, γ1,2, δ and the two β mutants (β1R41N and β3N41R)[40]. After linearizing the cDNA vectors with appropriate restriction endonucleases, the cDNA was purified and concentrated with the DNA Clean and Contentrator ^TM Kit (Zymoresearch, Catalog No. D4005). Capped transcripts of the purified cDNA were produced using the mMESSAGE mMACHINE® T7 transcription kit (Ambion, TX, USA) and polyadenylated using the Ambion PolyA tailing kit (Ambion). After transcription and polyadenylation the RNA was purified with the MEGAclear ^TM Kit (Ambion, Catalog No. AM1908). The final RNA concentration was measured on NanoDrop® ND-1000 and finally diluted and stored in diethylpyrocarbonate-treated water at −80 °C. For the microinjection, the RNA of αβ receptor combinations was mixed at 1:1 ratio (which leads to αβ receptors that consist of predominantly 3 beta and 2 alpha subunits[27]), for αkβlγm (k = 1–3, l = 1, 3, m = 1, 2) receptors at 1:1:5 ratio, for αkβ3γ2 (k = 4–6) and αkβlδ (k = 1, 4 and 6, l = 1, 3) receptor combinations at 3:1:5 ratio.
# (§3) Mature female Xenopus laevis (Nasco, WI) were anesthetized in a bath of ice-cold 0.17% Tricain (Ethyl-m-aminobenzoate, Sigma, MO) before decapitation in full accordance with all rules of the Austrian animal protection law (see http://www.ris.bka.gv.at/Dokumente/BgblAuth/BGBLA_2012_I_114/BGBLA_2012_I_114.pdf) and the Austrian animal experiment by-laws (see https://www.ris.bka.gv.at/Dokumente/BgblAuth/BGBLA_2012_II_522/BGBLA_2012_II_522.pdf) which implement the European Directive 2010/63/EU (see http://eur-lex.europa.eu/LexUriServ/LexUriServ.do?uri=OJ:L:2010:276:0033:0079:en:PDF) into the Austrian law (all information accessed on July 27, 2016). The frog’s ovaries were transferred to ND96 medium (96 mM NaCl, 2 mM KCl, 1 mM MgCl2, 5 mM HEPES; pH 7.5). Stage 5–6 oocytes with the follicle cell layer around them were roughly dissected with forceps into packages of 10–15 cells and washed in Ca^2+-free ND96 medium. Cells were then digested with collagenase (type IA, Sigma, NO, 1 mg/mL ND96) at 18 °C shaking at 30 rpm for 30–60 minutes and gently defolliculated with the aid of a glass pipette with appropriate tip diameter and a platinum loop. Defolliculated cells were stored at 18 °C for at least 6 hours in ND96 solution containing penicillin G (10000 IU/100 mL) and streptomycin (10 mg/100 mL) in order to preselect and exclude damaged cells from further treatment. Healthy defolliculated oocytes were injected with an aqueous solution of mRNA. A total of 4.5 ng of mRNA per oocyte was injected with a Nanoject II (Drummond). After injection of mRNA, oocytes were incubated at 18 °C (ND96 + antibiotic) for 2–3 days for αβ receptors and for 3–4 days for αβγ or αβδ receptors before recording. When cells were measured at later time points, oocytes were stored at +4 °C instead of 18 °C.
# (§4) For electrophysiological recordings, oocytes were placed on a nylon-grid in a bath of Ca^2+-containing NDE solution medium [96 mM NaCl, 5 mM HEPES-NaOH (pH 7.5), 2 mM KCl, 1 mM MgCl2, 1.8 mM CaCl2].
# [2] = target: T2, α1β3 GABAA receptors (Rattus norvegicus, UniProt P62813+P63079); experiment: Two electrode voltage clamp in Xenopus laevis oocytes, α1β3; details: for activity at 0.01 µM: 10 nM; for EC50: co-applied with GABA EC3-5, read-out: EC50
# T2 construct: expressed in transfected cells; host or cells: Xenopus laevis oocytes, mRNA injected
# T2 sequence (P62813 28-455): as the sequence (P62813 28-455) above
# T2 sequence (P63079 26-473): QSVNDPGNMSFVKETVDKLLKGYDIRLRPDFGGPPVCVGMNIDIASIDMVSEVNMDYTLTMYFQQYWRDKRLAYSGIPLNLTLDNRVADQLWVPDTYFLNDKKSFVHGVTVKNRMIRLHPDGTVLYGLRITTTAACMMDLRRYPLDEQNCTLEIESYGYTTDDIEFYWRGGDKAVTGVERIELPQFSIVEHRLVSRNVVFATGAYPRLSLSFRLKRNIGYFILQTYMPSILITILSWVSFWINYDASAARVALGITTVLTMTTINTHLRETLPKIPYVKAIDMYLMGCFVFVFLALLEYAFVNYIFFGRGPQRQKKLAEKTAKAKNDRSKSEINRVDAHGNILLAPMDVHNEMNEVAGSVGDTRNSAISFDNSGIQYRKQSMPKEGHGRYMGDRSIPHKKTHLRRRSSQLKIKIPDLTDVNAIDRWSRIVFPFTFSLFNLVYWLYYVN
# Source text: as §1, §2, §3, §4
# [3] = target: T3, α1β3N41R GABAA receptors (Rattus norvegicus, UniProt P62813+P63079, N66R); experiment: Two electrode voltage clamp in Xenopus laevis oocytes, mutant α1β3N41R; details: co-applied with GABA EC3-5, read-out: EC50 values for the mutated receptors
# T3 construct: expressed in transfected cells; host or cells: Xenopus laevis oocytes, mRNA injected
# T3 sequence (P62813 28-455): as the sequence (P62813 28-455) above
# T3 sequence (P63079 26-473 N66R): as the sequence (P63079 26-473) above, with N41R counted along it
# Source text: as §1, §2, §3, §4
# [4] = target: T4, α1β2 GABAA receptors (Rattus norvegicus, UniProt P62813+P63138); experiment: Two electrode voltage clamp in Xenopus laevis oocytes, α1β2
# T4 construct: expressed in transfected cells; host or cells: Xenopus laevis oocytes, mRNA injected
# T4 sequence (P62813 28-455): as the sequence (P62813 28-455) above
# T4 sequence (P63138 25-474 limits assumed): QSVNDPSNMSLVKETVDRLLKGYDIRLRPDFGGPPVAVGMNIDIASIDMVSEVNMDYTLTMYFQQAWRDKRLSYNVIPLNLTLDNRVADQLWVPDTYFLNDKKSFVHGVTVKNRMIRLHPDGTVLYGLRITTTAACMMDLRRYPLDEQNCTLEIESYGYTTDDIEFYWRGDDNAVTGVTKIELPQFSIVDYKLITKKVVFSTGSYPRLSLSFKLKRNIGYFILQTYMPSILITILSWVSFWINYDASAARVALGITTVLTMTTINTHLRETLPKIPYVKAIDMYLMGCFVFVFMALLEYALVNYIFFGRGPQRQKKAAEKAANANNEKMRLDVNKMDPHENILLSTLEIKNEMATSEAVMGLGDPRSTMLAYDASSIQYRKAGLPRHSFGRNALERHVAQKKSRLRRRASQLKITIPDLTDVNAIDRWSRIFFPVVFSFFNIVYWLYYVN
# Source text: as §1, §2, §3, §4
# [5] = target: T5, α4β3γ2 GABAA receptors (Rattus norvegicus, UniProt P28471+P63079); experiment: Two electrode voltage clamp in Xenopus laevis oocytes, α4β3γ2
# T5 construct: expressed in transfected cells; host or cells: Xenopus laevis oocytes, mRNA injected
# T5 sequence (P28471 36-552): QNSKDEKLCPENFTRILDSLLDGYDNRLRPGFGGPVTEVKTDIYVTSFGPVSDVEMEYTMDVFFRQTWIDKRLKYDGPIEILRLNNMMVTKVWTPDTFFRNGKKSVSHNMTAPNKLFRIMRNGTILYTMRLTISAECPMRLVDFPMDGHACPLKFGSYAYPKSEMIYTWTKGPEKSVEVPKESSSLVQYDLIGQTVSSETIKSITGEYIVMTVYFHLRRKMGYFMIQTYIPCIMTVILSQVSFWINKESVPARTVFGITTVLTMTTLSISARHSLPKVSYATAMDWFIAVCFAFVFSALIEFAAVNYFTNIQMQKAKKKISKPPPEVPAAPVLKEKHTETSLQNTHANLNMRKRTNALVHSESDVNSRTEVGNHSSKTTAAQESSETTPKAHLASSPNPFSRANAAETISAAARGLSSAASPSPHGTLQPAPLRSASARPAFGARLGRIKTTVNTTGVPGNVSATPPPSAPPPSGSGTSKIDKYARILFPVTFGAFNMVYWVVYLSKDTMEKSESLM
# T5 sequence (P63079 26-473): as the sequence (P63079 26-473) above
# T5 sequence (P18508 39-466 partner): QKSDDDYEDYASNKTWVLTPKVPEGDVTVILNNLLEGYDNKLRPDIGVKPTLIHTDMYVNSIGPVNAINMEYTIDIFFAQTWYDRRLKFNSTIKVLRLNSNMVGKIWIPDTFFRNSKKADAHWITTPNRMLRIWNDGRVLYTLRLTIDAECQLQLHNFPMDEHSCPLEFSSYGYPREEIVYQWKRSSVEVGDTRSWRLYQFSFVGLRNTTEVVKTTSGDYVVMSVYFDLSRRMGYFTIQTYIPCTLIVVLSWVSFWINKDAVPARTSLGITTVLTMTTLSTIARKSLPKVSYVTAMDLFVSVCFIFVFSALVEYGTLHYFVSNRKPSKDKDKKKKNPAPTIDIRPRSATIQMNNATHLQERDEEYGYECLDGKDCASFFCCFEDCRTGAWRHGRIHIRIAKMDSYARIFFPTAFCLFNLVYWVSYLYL
# Source text: as §1, §2, §3, §4
# [6] = target: T6, α5β3 GABAA receptors (Rattus norvegicus, UniProt P19969+P63079); experiment: Two electrode voltage clamp in Xenopus laevis oocytes, α5β3; details: read-out: efficacy, % of control current (GABA EC3-5 = 100%), α5β3
# T6 construct: expressed in transfected cells; host or cells: Xenopus laevis oocytes, mRNA injected
# T6 sequence (P19969 32-464 limits assumed): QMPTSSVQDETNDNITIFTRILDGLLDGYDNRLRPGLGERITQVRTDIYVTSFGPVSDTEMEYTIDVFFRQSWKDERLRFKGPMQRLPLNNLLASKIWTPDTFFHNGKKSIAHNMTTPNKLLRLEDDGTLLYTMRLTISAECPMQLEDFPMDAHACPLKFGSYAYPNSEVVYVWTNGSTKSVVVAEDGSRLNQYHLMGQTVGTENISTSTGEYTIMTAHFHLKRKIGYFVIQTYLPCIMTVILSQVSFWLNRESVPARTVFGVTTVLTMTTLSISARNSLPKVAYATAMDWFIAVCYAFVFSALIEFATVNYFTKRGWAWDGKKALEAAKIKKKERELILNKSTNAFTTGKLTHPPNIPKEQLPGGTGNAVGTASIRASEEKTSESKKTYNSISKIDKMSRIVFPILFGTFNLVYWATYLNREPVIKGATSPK
# T6 sequence (P63079 26-473): as the sequence (P63079 26-473) above
# Source text: as §1, §2, §3, §4
# [7] = target: T7, α1β1 GABAA receptors (Rattus norvegicus, UniProt P15431+P62813); experiment: Two electrode voltage clamp in Xenopus laevis oocytes, α1β1; details: for activity at 0.3 µM: 300 nM; for EC50: read-out: EC50
# T7 construct: expressed in transfected cells; host or cells: Xenopus laevis oocytes, mRNA injected
# T7 sequence (P62813 28-455): as the sequence (P62813 28-455) above
# T7 sequence (P15431 26-474): as the sequence (P15431 26-474 R66N) above, with N41R counted along it
# Source text: as §1, §2, §3, §4
# [8] = read-out: efficacy, % of control current (GABA EC3-5 = 100%), α1β3
# [9] = read-out: efficacy, % of control current (GABA EC3-5 = 100%), α1β1
SMILES,current as % of control at 0.1 µM [1],current as % of control at 0.3 µM [1],current as % of control at 1 µM [1],current as % of control at 3 µM [1],current as % of control at 10 µM [1],current as % of control at 30 µM [1],"activity at 0.01 µM [2, 8]","activity at 3 µM [2, 8]",Hill slope (nH) ([2]; α1β3),EC50 ([2]; α1β3),EC50 [3],EC50 [4],Hill slope (nH) ([4]; α1β2),"activity at 0.3 µM [7, 9]",Hill slope (nH) ([7]; α1β1),EC50 ([7]; α1β1 (α1+/β1− interface)),also measured
"Nc1ccc(-n2nc3c4cc(Cl)ccc4[nH]cc-3c2=O)cc1 [Compound 3, 8-Chloro-2-(4-aminophenyl)-2H-pyrazolo[4,3-c]quinolin-3(5H)-one]",70 ± 1%,65 ± 6%,85 ± 7%,100 ± 8%,125 ± 5%,110 ± 10%,108 ± 5.1%,254 ± 28.7%,1.1±0.5,1470 nM and 2200 nM,200 nM,1050 nM,2.0±0.7,299 ± 29.7%,1.0±0.4,~200 nM,"activity at 0.001 µM ([2]; read-out: efficacy, % of control current (GABA EC3-5 = 100%), α1β3, 1 nM): 106 ± 1.9%; activity at 0.1 µM ([2]; read-out: efficacy, % of control current (GABA EC3-5 = 100%), α1β3, 100 nM): 125 ± 4.6%; activity at 0.3 µM ([2]; read-out: efficacy, % of control current (GABA EC3-5 = 100%), α1β3, 300 nM): 128 ± 8%; efficacy, % of control current (GABA EC3-5 = 100%) ([2]; α1β3, 100 nM, 0.1 µM): 117.8±5.9%; activity at 30 µM ([4]; read-out: efficacy, % of control current (GABA EC3-5 = 100%), α1β2, 30 µM): 106 ± 11.4%; EC50 [5]: > 10000 nM; activity at 0.001 µM ([5]; read-out: efficacy, % of control current (GABA EC3-5 = 100%), α4β3γ2, 1 nM): 99.7 ± 2%; activity at 0.003 µM ([5]; read-out: efficacy, % of control current (GABA EC3-5 = 100%), α4β3γ2, 3 nM): 111%; activity at 0.01 µM ([5]; read-out: efficacy, % of control current (GABA EC3-5 = 100%), α4β3γ2, 10 nM): 107 ± 3.4%; activity at 0.03 µM ([5]; read-out: efficacy, % of control current (GABA EC3-5 = 100%), α4β3γ2, 30 nM): 114%; activity at 0.1 µM ([5]; read-out: efficacy, % of control current (GABA EC3-5 = 100%), α4β3γ2, 100 nM): 122 ± 4.6%; activity at 1 µM ([5]; read-out: efficacy, % of control current (GABA EC3-5 = 100%), α4β3γ2, 1 µM): 137 ± 6.7%; activity at 10 µM ([5]; read-out: efficacy, % of control current (GABA EC3-5 = 100%), α4β3γ2, 10 µM): 104 ± 12.6%; activity at 0.1 µM ([6]; 100 nM): 115 ± 8%; activity at 1 µM ([6]; 1 µM): 108 ± 4.7%; activity at 10 µM ([6]; 10 µM): 75.4 ± 6.4%; activity at 0.01 µM ([7]; read-out: efficacy, % of control current (GABA EC3-5 = 100%), α1β1, 10 nM): 116 ± 3.6%; activity at 10 µM ([7]; read-out: efficacy, % of control current (GABA EC3-5 = 100%), α1β1, 10 µM): 403 ± 50.9%; EC50 ([7]; α1β1, co-applied with GABA EC3-5): 220 nM"
"COc1ccc(-n2nc3c4cc(Cl)ccc4[nH]cc-3c2=O)cc1 [Compound 1, 8-Chloro-2-(4-methoxyphenyl)-2H-pyrazolo[4,3-c]quinolin-3(5H)-one]",80 ± 10%,100 ± 10%,140 ± 16%,195 ± 20%,205 ± 20%,150 ± 10%,106 ± 1.6%,839 ± 105%,1.5±0.5,1840 nM,980 nM,1150 nM,1.1±0.3,292 ± 24.5%,1.3±0.4,130 nM,"EC50 ([1]; co-applied with GABA EC3-5): 800 nM; activity at 0.001 µM ([4]; read-out: efficacy, % of control current (GABA EC3-5 = 100%), α1β2, 1 nM): 100%; activity at 10 µM ([4]; read-out: efficacy, % of control current (GABA EC3-5 = 100%), α1β2, 10 µM): 644 ± 57%; activity at 0.001 µM ([7]; read-out: efficacy, % of control current (GABA EC3-5 = 100%), α1β1, 1 nM): 102 ± 1.7%; activity at 0.003 µM ([7]; read-out: efficacy, % of control current (GABA EC3-5 = 100%), α1β1, 3 nM): 100.5 ± 0.5%; activity at 0.03 µM ([7]; read-out: efficacy, % of control current (GABA EC3-5 = 100%), α1β1, 30 nM): 138 ± 13.3%; activity at 30 µM ([7]; read-out: efficacy, % of control current (GABA EC3-5 = 100%), α1β1, 30 µM): 174 ± 34.2%"
